Test results taken from patent US9328112B2, “Tetracyclic CDK9 kinase inhibitors” (AbbVie Inc., priority 2014, dated 2016).

Key:
CDK9/Cyclin T1 = CDK9/Cyclin T1 (Homo sapiens (Human), UniProt P50750); experiment: CDK9 enzyme assay (LANCE ULight TR-FRET kinase assay); format: biochemical; conditions: 1000 μM ATP, 100 nM ULight MBP, kinase reaction 1 hour
Outline: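 Human CDK9/Cyclin T1 phosphorylating 100 nM ULight-MBP with 1000 μM ATP in HEPES/MgCl2 buffer, 1 h reaction. Stopped with 20 mM EDTA plus 0.5 nM Eu anti-phospho-MBP antibody, incubated 1 h, read by TR-FRET (ex 320 nm, em 615/665 nm).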

H929 cells = experiment: Cell viability assay (Cell TiterGlo); format: cell-based; conditions: Cell TiterGlo luminescence
Protocol: The cell viability assay was performed using H929 cells. Cells were seeded in 96-well plates at 10,000 cells/well and, after overnight incubation, treated with compounds in a dose response of 3-fold dilutions from 10 μM to 0.005 μM ([…], 0.1% final DMSO concentration). After 24 hours at 37° C., cell viability was measured using Cell TiterGlo reagent (Promega) with a luminescence reader.

[1] = Homo sapiens, NCI-H929, 24 hours at 37° C.

CDK9/Cyclin T1, sequence (P50750 whole entry): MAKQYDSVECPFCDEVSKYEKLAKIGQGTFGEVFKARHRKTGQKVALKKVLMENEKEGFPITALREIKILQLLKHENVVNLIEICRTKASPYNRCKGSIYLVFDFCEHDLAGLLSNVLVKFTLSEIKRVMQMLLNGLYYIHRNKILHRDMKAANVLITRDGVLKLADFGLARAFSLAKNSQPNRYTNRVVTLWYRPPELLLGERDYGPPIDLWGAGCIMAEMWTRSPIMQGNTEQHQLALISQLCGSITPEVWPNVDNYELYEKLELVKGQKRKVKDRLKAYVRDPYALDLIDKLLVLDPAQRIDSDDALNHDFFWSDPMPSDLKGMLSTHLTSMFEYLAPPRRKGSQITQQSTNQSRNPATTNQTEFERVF
CDK9/Cyclin T1, sequence (O60563 whole entry partner): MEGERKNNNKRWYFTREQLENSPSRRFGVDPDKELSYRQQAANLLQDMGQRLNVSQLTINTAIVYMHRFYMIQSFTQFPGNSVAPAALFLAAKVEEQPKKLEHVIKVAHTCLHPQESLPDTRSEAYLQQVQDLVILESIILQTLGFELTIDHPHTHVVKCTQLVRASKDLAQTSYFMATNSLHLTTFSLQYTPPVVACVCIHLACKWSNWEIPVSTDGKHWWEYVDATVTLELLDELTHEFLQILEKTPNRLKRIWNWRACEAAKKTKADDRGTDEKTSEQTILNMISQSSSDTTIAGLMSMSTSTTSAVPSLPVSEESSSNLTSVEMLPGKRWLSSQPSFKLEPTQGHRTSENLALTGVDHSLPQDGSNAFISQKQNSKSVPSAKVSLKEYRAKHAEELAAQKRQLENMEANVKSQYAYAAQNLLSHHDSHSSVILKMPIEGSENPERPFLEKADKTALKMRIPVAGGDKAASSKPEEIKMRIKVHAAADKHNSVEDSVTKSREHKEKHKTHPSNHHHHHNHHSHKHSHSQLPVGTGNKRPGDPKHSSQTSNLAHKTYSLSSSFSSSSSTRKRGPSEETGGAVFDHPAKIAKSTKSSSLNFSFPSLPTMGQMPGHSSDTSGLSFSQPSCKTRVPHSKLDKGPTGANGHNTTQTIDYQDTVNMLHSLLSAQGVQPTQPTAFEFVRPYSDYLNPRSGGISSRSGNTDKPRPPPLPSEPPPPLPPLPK

| Compound | IC50 (CDK9/Cyclin T1) [nM] | IC50 (H929 cells; [1]) [nM] | IC50 (H929 cells; 24 hours at 37° C.) [nM] |
| --- | --- | --- | --- |
| CN1Cc2c(C3=CCN([C@H]4CC[C@H](C(=O)O)CC4)CC3)[nH]c3ncc(F)c(c23)-c2ccccc21 [Example 181, trans-4-[4-(1-fluoro-7-methyl-6,7-dihydro-4H-3,4,7-triazadibenzo[cd,f]azulen-5-yl)-3,6-dihydropyridin-1(2H)-yl]cyclohexanecarboxylic acid] | 63 | 12 | – |
| CN1Cc2c(C3=CCN([C@H]4CC[C@@H](CC(=O)O)CC4)CC3)[nH]c3ncc(F)c(c23)-c2ccccc21 [Example 182, {cis-4-[4-(1-fluoro-7-methyl-6,7-dihydro-4H-3,4,7-triazadibenzo[cd,f]azulen-5-yl)-3,6-dihydropyridin-1(2H)-yl]cyclohexyl}acetic acid] | 71 | 10 | – |
| CN1Cc2c(C3=CCN([C@H]4CC[C@@H](C(=O)O)CC4)CC3)[nH]c3ncc(F)c(c23)-c2ccccc21 [Example 183, cis-4-[4-(1-fluoro-7-methyl-6,7-dihydro-4H-3,4,7-triazadibenzo[cd,f]azulen-5-yl)-3,6-dihydropyridin-1(2H)-yl]cyclohexanecarboxylic acid] | 80 | 14 | – |
| CN1Cc2c(C3=CCCN(C4CCC(=CC(=O)O)CC4)CC3)[nH]c3nccc(c23)-c2cc(F)ccc21 (centres unmarked) [Example 184, {4-[4-(10-fluoro-7-methyl-6,7-dihydro-4H-3,4,7-triazadibenzo[cd,f]azulen-5-yl)-2,3,6,7-tetrahydro-1H-azepin-1-yl]cyclohexylidene}acetic acid] | 130 | 190 | – |
| CN1Cc2c(C3=CCN(C4CCC(C(C)(C)C(=O)O)CC4)CC3)[nH]c3nccc(c23)-c2cc(F)ccc21 (centres unmarked) [Example 185, 2-{4-[4-(10-fluoro-7-methyl-6,7-dihydro-4H-3,4,7-triazadibenzo[cd,f]azulen-5-yl)-3,6-dihydropyridin-1(2H)-yl]cyclohexyl}-2-methylpropanoic acid] | 130 | 160 | – |
| CC[C@H]1c2c(C3=CCN([C@H]4C[C@@H](C(=O)OC)C4)CC3)[nH]c3nccc(c23)-c2cc(F)ccc2N1C [Example 186, methyl cis-3-{4-[(6S)-6-ethyl-10-fluoro-7-methyl-6,7-dihydro-4H-3,4,7-triazadibenzo[cd,f]azulen-5-yl]-3,6-dihydropyridin-1(2H)-yl}cyclobutanecarboxylate] | 64 | 13 | – |
| CC[C@H]1c2c(C3=CCN([C@H]4C[C@@H](C(=O)O)C4)CC3)[nH]c3nccc(c23)-c2cc(F)ccc2N1C [Example 187, cis-3-{4-[(6S)-6-ethyl-10-fluoro-7-methyl-6,7-dihydro-4H-3,4,7-triazadibenzo[cd,f]azulen-5-yl]-3,6-dihydropyridin-1(2H)-yl}cyclobutanecarboxylic acid] | 110 | 15 | – |
| CN1CCc2c(C3=CCN([C@H]4C[C@@H](C(=O)O)C4)CC3)[nH]c3nccc(c23)-c2cc(F)ccc21 [Example 188, cis-3-[4-(8-fluoro-5-methyl-1,3,4,5-tetrahydro-1,5,12-triazabenzo[4,5]cycloocta[1,2,3-cd]inden-2-yl)-3,6-dihydropyridin-1(2H)-yl]cyclobutanecarboxylic acid] | 150 | – | 290 |
| CC[C@H]1c2c(C3=CCN([C@H]4C[C@H](C(=O)O)C4)CC3)[nH]c3nccc(c23)-c2cc(F)ccc2N1C [Example 189, trans-3-{4-[(6S)-6-ethyl-10-fluoro-7-methyl-6,7-dihydro-4H-3,4,7-triazadibenzo[cd,f]azulen-5-yl]-3,6-dihydropyridin-1(2H)-yl}cyclobutanecarboxylic acid] | 110 | 6 | – |
| CN1CCc2c(C3=CCN([C@H]4C[C@H](C(=O)O)C4)CC3)[nH]c3nccc(c23)-c2cc(F)ccc21 [Example 190, trans-3-[4-(8-fluoro-5-methyl-1,3,4,5-tetrahydro-1,5,12-triazabenzo[4,5]cycloocta[1,2,3-cd]inden-2-yl)-3,6-dihydropyridin-1(2H)-yl]cyclobutanecarboxylic acid] | 160 | – | 190 |
| CN1Cc2c(C3=CCN(C4CCC(C(C#N)C(=O)O)CC4)CC3)[nH]c3nccc(c23)-c2cc(F)ccc21 (centres unmarked) [Example 191, cyano{4-[4-(10-fluoro-7-methyl-6,7-dihydro-4H-3,4,7-triazadibenzo[cd,f]azulen-5-yl)-3,6-dihydropyridin-1(2H)-yl]cyclohexyl}acetic acid] | 88 | 440 | – |
| CN1Cc2c(C3=CCN(C4CC(CC(=O)O)C4)CC3)[nH]c3ncc(F)c(c23)-c2cc(F)ccc21 (centres unmarked) [Example 192, {3-[4-(1,10-difluoro-7-methyl-6,7-dihydro-4H-3,4,7-triazadibenzo[cd,f]azulen-5-yl)-3,6-dihydropyridin-1(2H)-yl]cyclobutyl}acetic acid] | 79 | 27 | – |
| CN1Cc2c(C3=CCN(C4CC(C(=O)O)C4)CC3)[nH]c3ncc(F)c(c23)-c2cc(F)ccc21 (centres unmarked) [Example 193, 3-[4-(1,10-difluoro-7-methyl-6,7-dihydro-4H-3,4,7-triazadibenzo[cd,f]azulen-5-yl)-3,6-dihydropyridin-1(2H)-yl]cyclobutanecarboxylic acid] | 76 | 11 | – |
